What all share (format): in vivo
The subject of test [1] is 'Hass' avocado trees bearing an on-crop. Briefly: Trunk injection: spring bloom (bud break) of on-crop avocado trees. The following applies: for Floral (with fruit), No. of shoots per 100 nodes / Floral (w/o fruit), No. of shoots per 100 nodes / Determinate Floral, No. of shoots per 100 nodes / Indeterminate Floral, No. of shoots per 100 nodes / Floral, No. of shoots per 100 nodes: 1 g/tree trunk injection in Jan; for Floral (with fruit), No. of shoots per 100 nodes: branches with fruit; for Floral (w/o fruit), No. of shoots per 100 nodes: branches without fruit; for Determinate Floral, No. of shoots per 100 nodes / Indeterminate Floral, No. of shoots per 100 nodes / Floral, No. of shoots per 100 nodes: counted at spring bloom; for Floral, No. of shoots per 100 nodes: total floral shoots. As to the method: This example describes the use of adenosine to increase spring bud break of ‘Hass’ avocado trees to increase floral intensity and avocado production. Increased bud break was achieved via trunk injection of adenosine (9-beta-D-adenosine) obtained from Sigma Chemical Co. (Catalog No. A9251), alone or with a plant growth regulator. The following treatments were injected (1 g/tree) in mid-January into the trunk of on-crop ‘Hass’ avocado trees in a commercial orchard in Irvine, Calif.: (1) adenosine (Sigma); (2) 6-BA (Sigma); (3) GA3 (ProGibb 40%, Valent BioSciences Corp.); (4) TIBA (Sigma), and (5) TIBA plus adenosine. Each material was supplied at the rate of 1 g per tree dissolved in 50 to 60 ml distilled water using two plastic syringes per tree. There were five individual tree replicates per treatment, including (6) untreated on-crop control trees. For each tree, branches (12 inches long), 1 with fruit and 1 branch without fruit in each of the four tree quadrants, were tagged.

Test [2] has as its system tomato plants (cv. Supersweet 100). As to the kind of experiment: Adenosine by irrigation: vegetative and reproductive growth of tomato plants. The conditions noted are these: irrigation daily. As to the method:
This example describes the increase in fruit production by tomato plants (cv. Supersweet 100), achieved via application of adenosine by irrigation. Adenosine (9-beta-D-adenosine) obtained from Sigma Chemical Co. (Catalog No. A9251) was applied in a sufficient amount of distilled water to move the material into the root zone of ‘Supersweet 100’ tomato plants. Plants receiving treatments 2 and 3 were treated once every 10 days. Plants receiving treatments 4, 5, 6, and 7 were treated daily. The total amount of cytokinin or adenosine received by plants in each treatment by the end of experiment (75 days after planting) is given in parenthesis in the Table 1-1 below. The IPA concentration of the vermicompost tea was determined by radioimmunoassay.

The test system of test [3] is 'Fina Sodea' Clementine mandarin trees. Briefly: Adenosine by foliar spray (canopy application): fruit number, yield and value of mandarin trees. How it is done:
This example describes the increase in the number and yield of commercially valuable fruit of Clementine mandarin trees achieved by canopy application of adenosine. Adenosine (9-beta-D-adenosine) obtained from Sigma Chemical Co. (Catalog No. A9251) was applied (25 mg/L in 250 gallons of water per acre; 23.66 g/acre) with a 400 psi handgun sprayer one time at maximum peel thickness, which marks the end of the cell division stage of citrus fruit development, to ‘Fina Sodea’ Clementine mandarin trees.

Take `O=C(O)c1cc(I)cc(I)c1I` [TIBA, 2,3,5-triiodobenzoic acid]: in test [1], the “Floral (with fruit), No. of shoots per 100 nodes” value is reported as 11 ab shoots per 100 nodes; the “Floral (w/o fruit), No. of shoots per 100 nodes” value is listed as 8 shoots per 100 nodes; the “Determinate Floral, No. of shoots per 100 nodes” value was found to be 1 b shoots per 100 nodes; the “Indeterminate Floral, No. of shoots per 100 nodes” value was determined as 8 shoots per 100 nodes. Also, the “Floral, No. of shoots per 100 nodes” value in test [1] is on record as 9 b shoots per 100 nodes.

With `CC(C)=CCNc1ncnc2nc[nH]c12` [IPA, isopentenyladenine], in test [2] (total 0.035 μg by 75 days), the “# Fruit, average value per plant” value was 13 ab; the “# Fruiting shoots, average value per plant” value (“# Fruiting shoots … per plant” below) was 12.40 bc; the “# Leaves, average value per plant” value was found to be 99 abc; the “# Veg. shoots, average value per plant” value is 30.20 c. For the same compound, in test [2] (total 0.035 μg by 75 days), the Fruit diameter is 21.81 b mm; the “Main Shoot (mm), average value per plant” value is 73.75 mm; the “Tap Root (mm), average value per plant” value was 25.50 mm. Further, in test [2] (total 0.35 μg by 75 days), the “# Fruit, average value per plant” value is 10 bc; the “# Fruiting shoots … per plant” value is reported as 11.60 cd; the “# Leaves, average value per plant” value turned out to be 87 c; the “# Veg. shoots, average value per plant” value turned out to be 30.80 c. In addition, in test [2] (total 0.35 μg by 75 days), the Fruit diameter amounted to 19.92 c mm; the “Main Shoot (mm), average value per plant” value is 81.00 mm; the “Tap Root (mm), average value per plant” value came to 20.25 mm.

As for `Nc1ncnc2c1ncn2[C@@H]1O[C@H](CO)[C@@H](O)[C@H]1O` [Adenosine, 9-beta-D-adenosine], in test [2] (total 0.35 μg by 75 days), the “# Fruit, average value per plant” value amounted to 15 a; the “# Fruiting shoots … per plant” value stood at 17.60 a; the “# Leaves, average value per plant” value stood at 111 a; the “# Veg. shoots, average value per plant” value is recorded as 38.00 a. In test [2] (total 0.35 μg by 75 days), the Fruit diameter is reported as 24.13 a mm; the “Main Shoot (mm), average value per plant” value amounted to 74.00 mm; the “Tap Root (mm), average value per plant” value worked out at 28.00 mm; the “effect on length of the main shoot or the tap root” value is listed as “did not significantly alter”. In test [2] (total 0.35 μg by 75 days), the “more leaves than untreated control plants” value worked out at 2.85 fold and the “net increase in the number of fruit per plant over the untreated control” value is 87.5%. The “increase of average size of individual tomato fruit over untreated control” value in test [2] (total 0.35 μg by 75 days, transverse diameter) was 61%. Moreover, the “Total kg/tree, Medium” value in test [3] (25 mg/L once at maximum peel thickness, 3-year cumulative yield, diameter 50.81-57.15 mm) is given as 37.00 kg/tree. For the same compound, the “net increase in total fruit number” value in test [3] (adenosine applied at maximum peel thickness, numerical (non-significant)) was 12,460 fruit/200 trees/acre/3 years. Moreover, in test [3] (any year of the 3-year study), the “effect on fruit quality” value is “did not have a negative effect”. The “juice acid of fruit from treated trees” value in test [3] (year three of the study, P=0.0163) was “significantly reduced”. Further, the “total soluble solids to acid ratio of the juice” value in test [3] (year three of the study, P=0.0570) is listed as “higher”. In addition, in test [1], the “Floral (with fruit), No. of shoots per 100 nodes” value is on record as 8 abc shoots per 100 nodes; the “Floral (w/o fruit), No. of shoots per 100 nodes” value was found to be 10 shoots per 100 nodes; the “Determinate Floral, No. of shoots per 100 nodes” value came out at 3 ab shoots per 100 nodes; the “Indeterminate Floral, No. of shoots per 100 nodes” value is recorded as 7 shoots per 100 nodes. For the same compound, in test [1], the “Floral, No. of shoots per 100 nodes” value is reported as 10 ab shoots per 100 nodes. The “number of floral shoots compared to the untreated on-crop control trees” value in test [1] (single trunk injection in January) is “not significantly different”.

Turning to `C=C1C[C@]23C[C@@]1(O)CC[C@H]2[C@@]12C=C[C@H](O)[C@@](C)(C(=O)O1)[C@H]2[C@@H]3C(=O)O` [GA3, gibberrillic acid], in test [1], the “Floral (with fruit), No. of shoots per 100 nodes” value is listed as 6 bc shoots per 100 nodes; the “Floral (w/o fruit), No. of shoots per 100 nodes” value worked out at 8 shoots per 100 nodes; the “Determinate Floral, No. of shoots per 100 nodes” value is 2 b shoots per 100 nodes; the “Indeterminate Floral, No. of shoots per 100 nodes” value is on record as 6 shoots per 100 nodes. For the same compound, the “Floral, No. of shoots per 100 nodes” value in test [1] worked out at 7 b shoots per 100 nodes.

Source of the values: patent US10321684B2, “Use of 9-beta-D-adenosine to increase crop production” (The Regents of the University of California, priority 2009, dated 2019).
